Experimental findings from US5420145A, “Carboxylic acid derivative” (Shudo; Koichi, priority 1993, dated 1995) are described below.

Structures are written as SMILES. Like-named read-outs stand apart in the source and are kept apart here.

This test has as its system promyelocytic leukemia cell-line HL-60. The test is described as follows: Differentiation Inducing Activity on HL-60 (differentiation to granulocyte; morphological observation of nucleus and NBT reduction). In kind it is cell-based. Conditions: Homo sapiens. The protocol: The activities of the compounds of the above-described examples on differentiation were evaluated using promyelocytic leukemia cell-line HL-60 according to the method described in Japanese Patent Unexamined Publication No. 61-76440. The differentiation to granulocyte was evaluated by morphological observation of nucleus and measurement of ability to reduce nitroblue-tetrazolium (NBT). These are well known procedures providing adequate results in the evaluation of the cell differentiation-inducing activity of retinoids. Retinoic acid was used as the reference compound, and the concentrations which induced differentiation in the half of the cells were calculated.

[1] abbreviates: HL-60 cells, differentiation to granulocyte, nucleus morphology and nitroblue-tetrazolium (NBT) reduction, read-out: ED50 (concentration which induced differentiation in the half of the cells).

For `CC1(C)CCC(C)(C)c2cc(NC(=O)c3ccc(C(=O)O)cn3)ccc21` [Example 2, 6-(5,6,7,8-Tetrahydro-5,5,8,8-tetramethyl-2naphthalenylcarbamoyl) pyridine-3-carboxylic acid], under setting [1], the EC50 was determined as 0.22 nM.
Turning to `CC1=C(/C=C/C(C)=C/C=C/C(C)=C/C(=O)O)C(C)(C)CCC1` [Retinoic Acid, Retinoic acid, reference compound], the EC50 (HL-60, read-out: ED50 (concentration which induced differentiation in the half of the cells)) was determined as 2.4 nM.
As to `CC(C)c1ccc(NC(=O)c2ccc(C(=O)O)cn2)cc1C(C)C` [Example 5, 6-(3,4-Di-isopropylphenylcarbamoyl)pyridine-3-carboxylic acid], the EC50 under setting [1] worked out at 25 nM.
Same read-out and setting: as for `CC1(C)CCC(C)(C)c2cc(C(=O)Nc3ccc(C(=O)O)cc3O)ccc21` [Example 4, 3-Hydroxy-4-(5,6,7,8-tetrahydro-5,5,8,8-tetramethyl-2-naphthalenylcarboxamide)benzoic acid], the figure is 6.5 nM; as for `CC1(C)CCC(C)(C)c2cc(NC(=O)c3ccc(C(=O)O)cc3O)ccc21` [Example 3, 3-Hydroxy-4-(5,6,7,8-tetrahydro-5,5,8,8-tetramethyl-2-naphthalenylcarbamoyl)benzoic acid], 0.41 nM.
Regarding `CC1(C)CCC(C)(C)c2cc(NC(=O)c3ccc(C(=O)O)nc3)ccc21` [Example 1, 5-(5,6,7,8-Tetrahydro-5,5,8,8-tetramethyl-2-naphthalenyl-carbamoyl)pyridine-2-carboxylic acid], the EC50 under setting [1] came to 40 nM.
